Measured values: paper PMC2927429, “Novel Naphthalene-Based Inhibitors of Trypanosoma brucei RNA Editing Ligase 1” (PLoS Neglected Tropical Diseases, 2010)
Like-named read-outs stand apart in the source and are kept apart here.

Biological target: T1, RNA editing ligase 1 (TbREL1) (Trypanosoma brucei, UniProt P86926)
T1 construct: gene REL1; recombinant full-length TbREL1, C-terminal TAP tag, Sf9 cells
T1 sequence (P86926 1-469): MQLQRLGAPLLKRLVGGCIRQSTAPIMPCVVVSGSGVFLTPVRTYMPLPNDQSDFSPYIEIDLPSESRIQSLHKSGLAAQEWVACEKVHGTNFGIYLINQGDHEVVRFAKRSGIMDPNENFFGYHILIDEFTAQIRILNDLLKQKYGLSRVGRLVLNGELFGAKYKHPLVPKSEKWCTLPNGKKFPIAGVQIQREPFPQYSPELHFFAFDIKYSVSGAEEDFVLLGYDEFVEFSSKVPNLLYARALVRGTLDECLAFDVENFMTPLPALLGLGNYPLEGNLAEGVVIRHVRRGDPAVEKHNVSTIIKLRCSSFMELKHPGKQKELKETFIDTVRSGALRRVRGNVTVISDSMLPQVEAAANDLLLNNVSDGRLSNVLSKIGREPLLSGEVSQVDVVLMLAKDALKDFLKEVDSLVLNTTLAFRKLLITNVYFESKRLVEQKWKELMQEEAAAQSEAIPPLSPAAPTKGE
Experiment: inhibition of TbREL1 adenylylation with [α-32P]ATP, SDS/PAGE and phosphorimaging, […] Triton X-100
Type: biochemical

Row | SMILES | IC50 (read-out: IC50) | IC50
1 | O=C(Nc1ccc2c(O)c(/N=N/c3ccc4c(O)cc(S(=O)(=O)O)cc4c3)c(S(=O)(=O)O)cc2c1)c1ccccc1 [V1, (E)-7-benzamido-4-hydroxy-3-((5-hydroxy-7-sulfonaphthalen-2-yl)diazenyl)naphthalene-2-sulfonic acid] | 2160 ± 1200 nM | –
2 | Nc1ccc2c(O)c(/N=N/c3ccc4c(O)cc(S(=O)(=O)O)cc4c3)c(S(=O)(=O)O)cc2c1 [V2, (E)-7-amino-4-hydroxy-3-((5-hydroxy-7-sulfonaphthalen-2-yl)diazenyl)naphthalene-2-sulfonic acid] | 1530 ± 1170 nM | –
3 | O=S(=O)(O)c1cc(O)c2ccc(Nc3ccc4c(O)cc(S(=O)(=O)O)cc4c3)cc2c1 [V3, Di-J acid] | 8360 ± 1710 nM | –
4 | O=S(=O)(O)c1cc(/N=N/c2c(O)ccc3ccccc23)c(O)c(/N=N/c2c(O)ccc3cc(S(=O)(=O)O)ccc23)c1 [V4, Mordant Black 25] | – | 1590 ± 1100 nM
